Assay results published in ChEMBL document CHEMBL1125617, “N6-substituted adenosine receptor agonists: potential antihypertensive agents” (J Med Chem, 1991).

Legend:
[1] = molecular target: Adenosine receptors; A1 & A2 (Rattus norvegicus) (UniProt P29276+P25099+P30543); assay: Ratio of Ki values of A1 adenosine and A2 adenosine receptor; type: protein assay
Rattus norvegicus [2] = assay: Antihypertensive activity measured as change in heart rate was measured for a 10-h after 10 mg/kg oral dose; type: functional
Adenosine receptor A1 = molecular target: T1, Adenosine receptor A1 (Rattus norvegicus, UniProt P25099); assay: Binding affinity towards adenosine A1 receptor
T1 sequence (P25099 whole entry): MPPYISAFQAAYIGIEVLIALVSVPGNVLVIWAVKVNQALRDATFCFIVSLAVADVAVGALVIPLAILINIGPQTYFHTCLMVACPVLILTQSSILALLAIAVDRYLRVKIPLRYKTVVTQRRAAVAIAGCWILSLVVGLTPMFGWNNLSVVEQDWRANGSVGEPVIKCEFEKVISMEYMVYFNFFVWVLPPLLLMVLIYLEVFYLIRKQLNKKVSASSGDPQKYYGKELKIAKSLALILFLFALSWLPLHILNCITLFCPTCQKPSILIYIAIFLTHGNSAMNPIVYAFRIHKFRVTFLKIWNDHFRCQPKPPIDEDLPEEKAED

Adenosine A2 receptor = Adenosine A2 receptor (Rattus norvegicus, UniProt P29276+P30543); assay: Binding affinity towards adenosine A2 receptor; type: protein assay
Rattus norvegicus [3] = assay: Antihypertensive activity measured as change in blood pressure for a 10-h after 10 mg/kg oral dose in rat; type: functional

Structure (SMILES) | Ratio [1] | Ki (Adenosine receptor A1) | Ki (Adenosine A2 receptor) | Change (Rattus norvegicus [2]) | Change (Rattus norvegicus [3]) | Change (Rattus norvegicus [2]; 10 mg/kg) | Change (Rattus norvegicus [3]; 10 mg/kg)
OC[C@H]1O[C@@H](n2cnc3c(NC4CCCc5c(OCc6ccccc6)cccc54)ncnc32)[C@H](O)[C@@H]1O (stereo not given in full) | 3.7 | 138 nM | 511 nM | 20% | -14% | – | –
CCCCOc1ccc2c(c1)CCC2Nc1ncnc2c1ncn2[C@@H]1O[C@H](CO)[C@@H](O)[C@H]1O (single isomer, unassigned; isomer A) [listing 1 of 2 here] | – | 43.6 nM | 103200 nM | – | – | 15% | <10%
CCCCOc1ccc2c(c1)CCC2Nc1ncnc2c1ncn2[C@@H]1O[C@H](CO)[C@@H](O)[C@H]1O (stereo in doubt; 15) [listing 1 of 2 here] | – | 46.9 nM | 5922 nM | – | – | -28% | -46%
OC[C@H]1O[C@@H](n2cnc3c(NC4CCc5cc(O)ccc54)ncnc32)[C@H](O)[C@@H]1O (stereo not given in full) | 18.2 | 42.3 nM | 769 nM | -11% | -17% | – | –
O=[N+]([O-])c1ccc2c(c1)CCC2Nc1ncnc2c1ncn2[C@@H]1O[C@H](CO)[C@@H](O)[C@H]1O (stereo not given in full) | 87.6 | 40.5 nM | 3548 nM | <10% | -14% | – | –
CC(C)COc1ccc2c(c1)CCC2Nc1ncnc2c1ncn2[C@@H]1O[C@H](CO)[C@@H](O)[C@H]1O (stereo not given in full) | 323 | 28 nM | 9038 nM | -21% | -39% | – | –
COc1ccc2c(c1)CCC2Nc1ncnc2c1ncn2[C@@H]1O[C@H](CO)[C@@H](O)[C@H]1O (single isomer, unassigned; isomer A) [listing 1 of 2 here] | 120 | – | – | – | – | – | –
COc1cc2c(cc1OC)CC(Nc1ncnc3c1ncn3[C@@H]1O[C@H](CO)[C@@H](O)[C@H]1O)C2 | 278 | 4.98 nM | 1383 nM | -33% | -17% | – | –
CCCCOc1ccc2c(c1)CCC2Nc1ncnc2c1ncn2[C@@H]1O[C@H](CO)[C@@H](O)[C@H]1O (single isomer, unassigned; isomer A) [listing 2 of 2 here] | 2370 | – | – | – | – | – | –
OC[C@H]1O[C@@H](n2cnc3c(NC4CCc5ccccc54)ncnc32)[C@H](O)[C@@H]1O (stereo not given in full) | 24.5 | 45.8 nM | 1120 nM | <10% | -22% | – | –
COc1cc2c(c(OC)c1OC)C(Nc1ncnc3c1ncn3[C@@H]1O[C@H](CO)[C@@H](O)[C@H]1O)CC2 (stereo not given in full) | 32.6 | 1520 nM | 49710 nM | <10% | <10% | – | –
COc1ccc2c(c1)CCC2Nc1ncnc2c1ncn2[C@@H]1O[C@H](CO)[C@@H](O)[C@H]1O (stereo in doubt; 4) [listing 1 of 2 here] | 73 | – | – | – | – | – | –
CC(C)Oc1cccc2c1CCCC2Nc1ncnc2c1ncn2[C@@H]1O[C@H](CO)[C@@H](O)[C@H]1O (stereo not given in full) | 7.3 | 87.9 nM | 642 nM | 24% | -19% | – | –
CCOc1ccc2c(c1)CCC2Nc1ncnc2c1ncn2[C@@H]1O[C@H](CO)[C@@H](O)[C@H]1O (stereo not given in full) | 224 | 33.4 nM | 7487 nM | -34% | -33% | – | –
CCCCOc1ccc2c(c1)CCC2Nc1ncnc2c1ncn2[C@@H]1O[C@H](CO)[C@@H](O)[C@H]1O (single isomer, unassigned; isomer B) [listing 1 of 2 here] | 81.7 | – | – | – | – | – | –
OC[C@H]1O[C@@H](n2cnc3c(N[C@H]4CCc5ccccc54)ncnc32)[C@H](O)[C@@H]1O | 74 | 310 nM | 23000 nM | <10% | <10% | – | –
COc1ccc2c(c1)CCC2Nc1ncnc2c1ncn2[C@@H]1O[C@H](CO)[C@@H](O)[C@H]1O (single isomer, unassigned; isomer A) [listing 2 of 2 here] | – | 236 nM | 28260 nM | – | – | <10% | <10%
COc1ccc2c(c1)CCC2Nc1ncnc2c1ncn2[C@@H]1O[C@H](CO)[C@@H](O)[C@H]1O (single isomer, unassigned; isomer b) [listing 1 of 2 here] | 34.8 | – | – | – | – | – | –
COc1ccc2c(c1)CCC2Nc1ncnc2c1ncn2[C@@H]1O[C@H](CO)[C@@H](O)[C@H]1O (stereo in doubt; 4) [listing 2 of 2 here] | – | 59.5 nM | 4350 nM | – | – | -33% | -40%
COc1ccc2c(c1)CCC2Nc1ncnc2c1ncn2[C@@H]1O[C@H](CO)[C@@H](O)[C@H]1O (single isomer, unassigned; isomer b) [listing 2 of 2 here] | – | 41.7 nM | 1450 nM | – | – | -11% | -25%
CCCCOc1ccc2c(c1)CCC2Nc1ncnc2c1ncn2[C@@H]1O[C@H](CO)[C@@H](O)[C@H]1O (stereo in doubt; 15) [listing 2 of 2 here] | 126 | – | – | – | – | – | –
CCCCOc1ccc2c(c1)CCC2Nc1ncnc2c1ncn2[C@@H]1O[C@H](CO)[C@@H](O)[C@H]1O (single isomer, unassigned; isomer B) [listing 2 of 2 here] | – | 48.3 nM | 3946 nM | – | – | -13% | -31%

Second part, led by results:

Ratio [1] | Ki (Adenosine receptor A1) | Ki (Adenosine A2 receptor) | Structure (SMILES) | Change (Rattus norvegicus [2]) | Change (Rattus norvegicus [3]) | Change (Rattus norvegicus [2]; 10 mg/kg) | Change (Rattus norvegicus [3]; 10 mg/kg)
13.2 | – | – | COc1ccc2c(c1)C(Nc1ncnc3c1ncn3[C@@H]1O[C@H](CO)[C@@H](O)[C@H]1O)CCC2 (single isomer, unassigned; isomer A) [listing 1 of 2 here] | – | – | – | –
7.3 | 118 nM | 857 nM | OC[C@H]1O[C@@H](n2cnc3c(NCC4CCCCc5ccccc54)ncnc32)[C@H](O)[C@@H]1O (stereo not given in full) | <10% | <10% | – | –
– | 2580 nM | 34060 nM | COc1ccc2c(c1)C(Nc1ncnc3c1ncn3[C@@H]1O[C@H](CO)[C@@H](O)[C@H]1O)CCC2 (single isomer, unassigned; isomer A) [listing 2 of 2 here] | – | – | <10% | <10%
4.5 | 404 nM | 1821 nM | OC[C@H]1OC(n2cnc3c(NCC4=CCCCc5ccccc54)ncnc32)[C@H](O)[C@@H]1O (stereo not given in full) | <10% | <10% | – | –
– | 22.9 nM | 619 nM | COc1ccc2c(c1)C(Nc1ncnc3c1ncn3[C@@H]1O[C@H](CO)[C@@H](O)[C@H]1O)CCC2 (stereo in doubt; 31) [listing 1 of 2 here] | – | – | -40% | -56%
68.9 | 23.8 nM | 1642 nM | OC[C@H]1O[C@@H](n2cnc3c(NC4Cc5ccccc5C4)ncnc32)[C@H](O)[C@@H]1O | -47% | -29% | – | –
86.4 | 68.6 nM | 5929 nM | CCOc1ccc2c(c1)C(Nc1ncnc3c1ncn3[C@@H]1O[C@H](CO)[C@@H](O)[C@H]1O)CCC2 (stereo not given in full) | 32% | -39% | – | –
41.2 | 71.5 nM | 2947 nM | COc1ccc2c(c1)CCCC2Nc1ncnc2c1ncn2[C@@H]1O[C@H](CO)[C@@H](O)[C@H]1O (stereo not given in full) | <10% | -30% | – | –
44 | 41 nM | 1808 nM | OC[C@H]1O[C@@H](n2cnc3c(NC4CCc5cc(Cl)ccc54)ncnc32)[C@H](O)[C@@H]1O (stereo not given in full) | -24% | -24% | – | –
9.5 | 33.7 nM | 321 nM | OC[C@H]1O[C@@H](n2cnc3c(NC4CCCc5ccccc54)ncnc32)[C@H](O)[C@@H]1O (stereo not given in full) | -24% | -51% | – | –
13.3 | 299 nM | 3989 nM | OC[C@H]1O[C@@H](n2cnc3c(N[C@H]4CCCc5ccccc54)ncnc32)[C@H](O)[C@@H]1O | <10% | -28% | – | –
4.27 | 17.8 nM | 76.9 nM | OC[C@H]1O[C@@H](n2cnc3c(NC4CCCCc5ccccc54)ncnc32)[C@H](O)[C@@H]1O (stereo not given in full) | 28% | -42% | – | –
27 | – | – | COc1ccc2c(c1)C(Nc1ncnc3c1ncn3[C@@H]1O[C@H](CO)[C@@H](O)[C@H]1O)CCC2 (stereo in doubt; 31) [listing 2 of 2 here] | – | – | – | –
9.8 | 68 nM | 666 nM | OC[C@H]1O[C@@H](n2cnc3c(NCC4(O)CCc5ccccc54)ncnc32)[C@H](O)[C@@H]1O (stereo not given in full) | 17% | -23% | – | –
4 | 81.1 nM | 327 nM | CCCOc1cccc2c1CCCC2Nc1ncnc2c1ncn2[C@@H]1O[C@H](CO)[C@@H](O)[C@H]1O (stereo not given in full) | 16% | -27% | – | –
22.7 | – | – | COc1ccc2c(c1)C(Nc1ncnc3c1ncn3[C@@H]1O[C@H](CO)[C@@H](O)[C@H]1O)CCC2 (single isomer, unassigned; isomer B) [listing 1 of 2 here] | – | – | – | –
95.5 | 506 nM | 48290 nM | CCCOc1ccc2c(c1)C(Nc1ncnc3c1ncn3[C@@H]1O[C@H](CO)[C@@H](O)[C@H]1O)CCC2 (stereo not given in full) | 36% | <10% | – | –
5.2 | 17.3 nM | 91.7 nM | OC[C@H]1O[C@@H](n2cnc3c(NCC4CCCc5ccccc54)ncnc32)[C@H](O)[C@@H]1O (stereo not given in full) | 21% | <10% | – | –
– | 12.1 nM | 274 nM | COc1ccc2c(c1)C(Nc1ncnc3c1ncn3[C@@H]1O[C@H](CO)[C@@H](O)[C@H]1O)CCC2 (single isomer, unassigned; isomer B) [listing 2 of 2 here] | – | – | 37% | -44%
